Test results: article PMC8041284, “Tunable Methacrylamides for Covalent Ligand Directed Release Chemistry” (Journal of the American Chemical Society, 2021)
Like-named read-outs stand apart in the source and are kept apart here.

Target: BTK (Homo sapiens, UniProt Q06187)
Assay: biochemical
[1] = read-out: BTK inhibition (%), 0.75 uM BTK, […] probe 3l, 15 min preincubation

Chain of BTK (Q06187 402-655 limits assumed): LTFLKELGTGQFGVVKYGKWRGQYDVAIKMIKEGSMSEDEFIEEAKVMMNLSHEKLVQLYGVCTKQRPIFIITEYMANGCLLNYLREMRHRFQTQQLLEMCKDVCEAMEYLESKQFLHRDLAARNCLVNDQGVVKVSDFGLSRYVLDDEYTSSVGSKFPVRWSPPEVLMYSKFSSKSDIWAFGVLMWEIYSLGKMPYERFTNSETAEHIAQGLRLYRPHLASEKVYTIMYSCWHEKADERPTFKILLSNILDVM

| Compound | inhibition at 10 µM [1] [%] | inhibition at 10 µM (read-out: BTK inhibition (%)) [%] |
| --- | --- | --- |
| Nc1ncn([C@@H]2O[C@H](CO)[C@@H](O)[C@H]2O)c(=O)n1 [PCM-0064526] | -6.2 |  |
| O=C(O)CCCC[C@@H]1SC[C@@H]2NC(=O)N[C@@H]21 [PCM-0085973] | 0 |  |
| CCN(CC)CCOC(=O)C(c1ccccc1)c1ccccc1 [PCM-0085916] | -7.8 |  |
| CC(C)(C#N)c1cc(Cn2cncn2)cc(C(C)(C)C#N)c1 [PCM-0086178] | -11 |  |
| CCOC(=O)C1=C(C)NC(C)=C(C(=O)OC)C1c1cccc(Cl)c1Cl (stereo not drawn) [PCM-0065133] | 17.9 |  |
| CC[C@@H]1/C=C(\C)C[C@H](C)C[C@H](OC)[C@H]2O[C@@](O)(C(=O)C(=O)N3CCCC[C@H]3C(=O)O[C@H](/C(C)=C/[C@@H]3CC[C@H](Cl)[C@H](OC)C3)[C@H](C)[C@@H](O)CC1=O)[C@H](C)C[C@@H]2OC [PCM-0214690] | -13.8 |  |
| Cc1cccc(Nc2ccncc2S(=O)(=O)NC(=O)NC(C)C)c1 [PCM-0086313] | -4.3 |  |
| CC(C)N(CCCNC(=O)Nc1ccc(C(C)(C)C)cc1)C[C@H]1O[C@@H](n2ccc3c(N)ncnc32)[C@H](O)[C@@H]1O [PCM-0215195] | -18.5 |  |
| CC[C@H]1CN2CC[C@]3(C(=O)Nc4ccccc43)[C@@H]2C[C@@H]1/C(=C\OC)C(=O)OC [PCM-0216305] | 3.9 |  |
| Cc1cccc(C#Cc2ccccc2)n1 [PCM-0065388] | -10.9 |  |
| COc1ccc2c(Oc3ccc(NC(=O)c4c(C)n(CC(C)(C)O)n(-c5ccccc5)c4=O)nc3)ccnc2c1 [PCM-0095484] | 12.4 |  |
| COc1ccc(-c2ccc3c(N4CCOCC4)nc(N4C[C@@H](C)O[C@@H](C)C4)nc3n2)cc1CO [PCM-0094955] | -12.4 |  |
| C[C@]12C=CC(=O)C=C1CC[C@H]1[C@@H]3C[C@@H](O)[C@](O)(C(=O)CO)[C@@]3(C)C[C@H](O)[C@@]12F [PCM-0064944] | 2.1 |  |
| CNC(=O)c1ccccc1Nc1nc(Nc2ccc(N3CCOCC3)cc2OC)ncc1Cl [PCM-0095447] | 67.6 |  |
| COc1ccnc2[nH]cc(C(=O)C(=O)N3CCN(C(=O)c4ccccc4)C[C@H]3C)c12 [PCM-0095512] | 0.7 |  |
| Nc1nc(NCCNc2ncc(-n3ccnc3)c(-c3ccc(Cl)cc3Cl)n2)ccc1[N+](=O)[O-] [PCM-0095481] | 20.7 |  |
| C[C@H](CCC(=O)NCC(=O)O)[C@H]1CC[C@H]2[C@@H]3[C@H](O)C[C@@H]4C[C@H](O)CC[C@]4(C)[C@H]3C[C@H](O)[C@]12C [PCM-0215147] | -10.1 |  |
| CN[C@@H]1[C@H](O[C@H]2[C@H](O[C@H]3[C@H](O)[C@@H](O)[C@H](N=C(N)N)[C@@H](O)[C@@H]3N=C(N)N)O[C@@H](C)[C@]2(O)CO)O[C@@H](CO)[C@H](O)[C@H]1O [PCM-0085923] | 9.4 |  |
| CC(C)(C)c1nc(-c2cccc(NS(=O)(=O)c3c(F)cccc3F)c2F)c(-c2ccnc(N)n2)s1 [PCM-0095418] | 39.3 |  |
| COc1cc(C(C)=O)ccc1O [PCM-0094831] | 9 |  |
| CN(C)CCCCC(=O)Nc1ccc(NC(=S)NC(=O)c2ccc(C(C)(C)C)cc2)cc1 [PCM-0214793] | 7 |  |
| CN1CCC(NC(=O)c2cc(-c3c(O)cc(O)cc3Oc3ccc([N+](=O)[O-])cc3)on2)CC1 [PCM-0215304] | -10.8 |  |
| Cc1nc(C#Cc2ccnc(Cl)c2)c(C)n1-c1ccc(OC(F)(F)F)cc1 [PCM-0095504] | -55.3 |  |
| Cc1cc(N2CCN([C@@H]3CN[C@H](C(=O)N4CCSC4)C3)CC2)n(-c2ccccc2)n1 [PCM-0214840] |  | 0.8 |
| COc1ccnc(C[S+]([O-])c2nc3ccc(-n4cccc4)cc3[nH]2)c1C (stereo not drawn) [PCM-0214937] | 25.7 |  |
| CC1=NN(c2ccccc2)C(=O)C1 [PCM-0006147] | 6.2 |  |
| COc1cc(NC(=O)c2ccccn2)ccc1Cl [PCM-0095344] | 15.6 |  |

Second part, the molecule after the results:

| inhibition at 10 µM [1] [%] | inhibition at 10 µM (read-out: BTK inhibition (%)) [%] | Compound |
| --- | --- | --- |
| -27 |  | COC(=O)c1c2c(c3ccccc3c1O)OC(C)(C)C=C2 [PCM-0216437] |
| 53.1 |  | CC(C)NC(=O)C1CCC(n2c(NC(=O)c3ccc(F)cc3)nc3ccc(CN4CCC(C(C)(C)O)CC4)cc32)CC1 (stereo not drawn) [PCM-0215859] |
| -10 |  | CCCCCCC(O)C(=O)O (stereo not drawn) [PCM-0216106] |
| 24.7 |  | COc1ccc(C(=O)C(=O)c2ccc(OC)cc2)cc1 [PCM-0216078] |
| 3.4 |  | Cc1cc2nc3c(=O)[nH]c(=O)nc-3n(C[C@H](O)[C@H](O)[C@H](O)COP(=O)(O)O)c2cc1C [PCM-0215946] |
| -13.6 |  | CC1=NCC[C@@H](C(=O)O)N1 [PCM-0216558] |
| 55.9 |  | COc1ccc(CC(=O)Nc2nc3c(s2)CCc2ccccc2-3)cc1OC [PCM-0215753] |
| 2.3 |  | CCCC(=O)NCCc1csc(-c2ccc(Cl)cc2)n1 [PCM-0215869] |
| 23.9 |  | C=C1C(=O)O[C@H]2[C@H]1CCC(C)=C1CC[C@@](C)(O)[C@@H]12 [PCM-0216540] |
| 7.7 |  | C[C@@H]1CCC=C2C(=O)C[C@H]3OOC(C)(C)[C@H]3[C@]21C [PCM-0216386] |
| -7.8 |  | NN1CC(=O)NC1=O [PCM-0216229] |
| -12.4 |  | O=C1CCN(c2ccccc2)N1 [PCM-0216111] |
| 3.9 |  | CO[C@@H]1[C@H](OC(=O)/C=C/C=C/C=C/C=C/C(=O)O)CC[C@]2(CO2)[C@H]1[C@@]1(C)O[C@@H]1CC=C(C)C [PCM-0215572] |
| -8.5 |  | CCCCc1ccc(O)cc1O [PCM-0216578] |
| 31 |  | CN1CCN(Cc2ccc(NC(=O)Nc3ccc(Oc4ccnc(N)n4)cc3)cc2C(F)(F)F)CC1 [PCM-0215587] |
| 9.3 |  | O=C(O)c1ccc2c(c1)C(=O)c1ccccc1C2=O [PCM-0216619] |
| 14.7 |  | CC1(N)CCN(c2cnc(-c3cccc(Cl)c3Cl)c(N)n2)CC1 [PCM-0215991] |
| 8.5 |  | CC(C)CCCC(C)CCCC(C)CCCCC(C)CCCC(C)CCCC(C)C (stereo not drawn) [PCM-0216154] |
| 86.9 |  | COc1ccc2c(c1)[C@]1(C[C@H]1c1ccc3c(/C=C/c4ccc(CN5C[C@@H](C)O[C@@H](C)C5)cc4)n[nH]c3c1)C(=O)N2 [PCM-0215815] |
| 1.5 |  | Cc1nccn1CCC(C(N)=O)(c1ccccc1)c1ccccc1 [PCM-0216555] |
| -17 |  | CC(C)=CCC/C(C)=C/C=O [PCM-0215914] |
| -10 |  | O=C(O)C(=O)O [PCM-0216287] |
| -12.4 |  | Cn1nnc(-c2ccc(-c3ccc(N4C[C@H](CO)OC4=O)cc3F)cn2)n1 [PCM-0216559] |
| -8.5 |  | O=S(=O)(Cl)c1ccc(-c2ccccc2)cc1 [PCM-0216165] |
| 31.7 |  | CC(=O)N1c2ccc(-c3ccc(C(=O)O)cc3)cc2[C@H](Nc2ccc(Cl)cc2)C[C@@H]1C [PCM-0215400] |
| 2.1 |  | CC[C@@](C)(Nc1ccnc(-c2c[nH]c3ncccc23)n1)C(=O)NCC(F)(F)F [PCM-0215573] |
| 8.5 |  | Nc1ccc(S(=O)(=O)Nc2cnc3ccccc3n2)cc1 [PCM-0215994] |
| -27.8 |  | CCn1c2ccccc2c2cc(CNCc3ccccc3OC)ccc21 [PCM-0215626] |
| -23.2 |  | C[C@@H]1OC(O)[C@@H](O)[C@H](O)[C@@H]1O (stereo partly drawn) [PCM-0216337] |
| 88.3 |  | CCNC(=O)C#Cc1ccc2c(C(=Nc3ccc(CN(C)C)cc3)c3ccccc3)c(O)[nH]c2c1 [PCM-0215488] |
